Experimental data from the NIST ThermoML archive (doi:10.1021/je700339f).
Numbers after ± are expanded uncertainties.

Assay: xn = mol fraction of the nth substance listed
Conditions: 298.15 K, Liquid

ClCCCl [1,2-dichloroethane] + CN(C)C=O
mass density [kg/m3]
Conditions | x2 = 0.0805 | x2 = 0.1978 | x2 = 0.302 | x2 = 0.397 | x2 = 0.4988 | x2 = 0.6023 | x2 = 0.7054 | x2 = 0.8005 | x2 = 0.9071
100 kPa | 1221.2 ± 6 | 1186.2 ± 6 | 1154.9 ± 6 | 1126.5 ± 6 | 1095.7 ± 6.1 | 1064.5 ± 6 | 1033.6 ± 6 | 1005.2 ± 6 | 972.8 ± 6.1
500 kPa | 1221.5 ± 6 | 1186.6 ± 6 | 1155.2 ± 6 | 1126.8 ± 6 | 1096 ± 6.1 | 1064.8 ± 6 | 1033.9 ± 6 | 1005.5 ± 6 | 973.1 ± 6.1
1000 kPa | 1222 ± 6 | 1187 ± 6 | 1155.7 ± 6 | 1127.2 ± 6 | 1096.4 ± 6.3 | 1062.2 ± 6 | 1034.3 ± 5.7 | 1005.8 ± 6.1 | 973.3 ± 6.1
1500 kPa | 1222.5 ± 6 | 1187.5 ± 6 | 1156.2 ± 6 | 1127.6 ± 6.1 | 1096.8 ± 6.1 | 1065.6 ± 6 | 1034.7 ± 6 | 1006.2 ± 6.1 | 973.7 ± 6.1
2000 kPa | 1223 ± 6 | 1188 ± 6 | 1156.6 ± 6 | 1128 ± 6.1 | 1097.2 ± 6.1 | 1065.9 ± 6 | 1035 ± 6 | 1006.5 ± 6.1 | 974 ± 6.1
2500 kPa | 1223.4 ± 6 | 1188.4 ± 6 | 1156.9 ± 6 | 1128.4 ± 6 | 1097.6 ± 6.1 | 1066.4 ± 6 | 1035.4 ± 6 | 1006.9 ± 6.1 | 974.3 ± 6.1
3000 kPa | 1223.9 ± 6 | 1188.8 ± 6 | 1157.4 ± 6.1 | 1128.8 ± 6.1 | 1098 ± 6.1 | 1066.7 ± 6 | 1035.7 ± 6 | 1007.2 ± 6.1 | 974.6 ± 6.1
3500 kPa | 1224.3 ± 6 | 1189.3 ± 6 | 1157.8 ± 6.1 | 1129.3 ± 6.1 | 1098.3 ± 6.1 | 1067 ± 6 | 1036.1 ± 6 | 1007.6 ± 6.1 | 974.9 ± 6.1
4000 kPa | 1224.8 ± 6 | 1189.7 ± 6 | 1158.2 ± 6.1 | 1129.6 ± 6.1 | 1098.7 ± 6.1 | 1067.4 ± 6 | 1036.4 ± 6 | 1007.9 ± 6.1 | 975.2 ± 6.1
4500 kPa | 1225.3 ± 6 | 1190.1 ± 6.1 | 1158.6 ± 6.1 | 1130.1 ± 6.1 | 1099.2 ± 6.1 | 1067.8 ± 6.1 | 1036.7 ± 6 | 1008.2 ± 6.1 | 975.5 ± 6.1
5000 kPa | 1225.8 ± 6 | 1190.6 ± 6.1 | 1159.1 ± 6.1 | 1130.4 ± 6.1 | 1099.5 ± 6.1 | 1068.2 ± 6.1 | 1037.1 ± 6 | 1008.5 ± 6.1 | 975.9 ± 6.1
5500 kPa | 1226.3 ± 6.1 | 1191 ± 6.1 | 1159.5 ± 6.1 | 1130.9 ± 6.1 | 1099.8 ± 6.1 | 1068.5 ± 6.1 | 1037.4 ± 6 | 1008.9 ± 6.1 | 976.2 ± 6.1
6000 kPa | 1226.7 ± 6.1 | 1191.5 ± 6.1 | 1159.9 ± 6.1 | 1131.4 ± 6.1 | 1100.2 ± 6.1 | 1068.8 ± 6.1 | 1037.7 ± 6 | 1009.2 ± 6.1 | 976.5 ± 6.1
6500 kPa | 1227.1 ± 6.1 | 1191.9 ± 6.1 | 1160.3 ± 6.1 | 1131.6 ± 6.1 | 1100.6 ± 6.1 | 1069.3 ± 6.1 | 1038.1 ± 6 | 1009.5 ± 6.1 | 976.8 ± 6.1
7000 kPa | 1227.6 ± 6.1 | 1192.3 ± 6.1 | 1160.8 ± 6.1 | 1132.1 ± 6.1 | 1101 ± 6.1 | 1069.6 ± 6.1 | 1038.5 ± 6 | 1009.8 ± 6.1 | 977.1 ± 6.1
7500 kPa | 1228 ± 6.1 | 1192.7 ± 6.1 | 1161.2 ± 6.1 | 1132.5 ± 6.1 | 1101.4 ± 6.1 | 1070 ± 6.1 | 1038.8 ± 6 | 1010.2 ± 6.1 | 977.4 ± 6.2
8000 kPa | 1228.5 ± 6.1 | 1193.2 ± 6.1 | 1161.6 ± 6.1 | 1132.8 ± 6.1 | 1101.8 ± 6.1 | 1070.3 ± 6.1 | 1039.2 ± 6 | 1010.5 ± 6.1 | 977.8 ± 6.1
8500 kPa | 1228.9 ± 6.1 | 1193.7 ± 6.1 | 1161.9 ± 6.1 | 1133.2 ± 6.1 | 1102.1 ± 6.1 | 1070.7 ± 6.1 | 1039.5 ± 6.1 | 1010.8 ± 6.1 | 978.2 ± 6.1
9000 kPa | 1229.3 ± 6.1 | 1194 ± 6.1 | 1162.4 ± 6.1 | 1133.7 ± 6.1 | 1102.5 ± 6.1 | 1071.1 ± 6.1 | 1039.9 ± 6.1 | 1011.2 ± 6.1 | 978.4 ± 6.2
9500 kPa | 1229.8 ± 6.1 | 1194.5 ± 6.1 | 1162.8 ± 6.1 | 1134 ± 6.1 | 1102.9 ± 6.1 | 1071.4 ± 6.1 | 1040.2 ± 6.1 | 1011.5 ± 6.1 | 978.7 ± 6.2
9900 kPa | – | – | – | – | – | – | – | 1011.8 ± 6.1 | –
10000 kPa | 1230.4 ± 6.1 | 1195 ± 6.1 | 1163.2 ± 6.1 | 1134.5 ± 6.1 | 1103.3 ± 6.1 | 1071.8 ± 6.1 | 1040.6 ± 6.1 | – | 979.1 ± 2
10500 kPa | 1230.8 ± 6.1 | 1195.4 ± 6.1 | 1163.6 ± 6.1 | 1134.9 ± 6.1 | 1103.7 ± 6.1 | 1072.2 ± 6.1 | 1040.9 ± 6.1 | 1012.2 ± 6.1 | 979.4 ± 6.2
11000 kPa | 1231.2 ± 6.1 | 1195.8 ± 6.1 | 1164.1 ± 6.1 | 1135.3 ± 6.1 | 1104 ± 6.1 | 1072.5 ± 6.1 | 1041.2 ± 6.1 | 1012.4 ± 6.1 | 979.7 ± 6.1
11400 kPa | – | – | 1164.4 ± 6.1 | – | – | – | – | – | –
11500 kPa | 1231.7 ± 6.1 | 1196.2 ± 6.1 | – | 1135.7 ± 6.1 | 1104.4 ± 6.1 | 1072.9 ± 6.1 | 1041.6 ± 6.1 | 1012.8 ± 6.1 | 980 ± 6.2
11900 kPa | – | – | – | 1136 ± 6.1 | – | – | 1041.9 ± 6.1 | – | –
12000 kPa | 1232.2 ± 6.1 | 1196.7 ± 6.1 | 1164.9 ± 6.1 | – | 1104.8 ± 6.2 | 1073.2 ± 6.1 | – | 1013.2 ± 6.1 | 980.3 ± 6.2
12400 kPa | – | – | 1165.2 ± 6.1 | – | – | – | 1042.2 ± 6.1 | – | 980.5 ± 6.2
12500 kPa | 1232.6 ± 6.1 | 1197.1 ± 6.1 | – | 1136.5 ± 6.1 | 1105.2 ± 6.2 | 1073.5 ± 6.1 | – | 1013.5 ± 6.1 | –
12900 kPa | – | – | – | 1136.8 ± 6.1 | – | – | – | – | –
13000 kPa | 1233.1 ± 6.2 | 1197.4 ± 6.2 | 1165.6 ± 6.1 | – | 1105.6 ± 6.2 | 1073.9 ± 6.1 | 1042.6 ± 6.1 | 1013.8 ± 6.1 | 980.9 ± 6.2
13400 kPa | 1233.4 ± 6.2 | – | – | – | – | – | – | – | –
13500 kPa | – | 1197.9 ± 6.2 | 1166 ± 6.1 | 1137.3 ± 6.2 | 1105.9 ± 6.2 | 1074.2 ± 6.1 | 1042.9 ± 6.1 | 1014.1 ± 6.1 | 981.2 ± 6.2
13900 kPa | – | – | – | – | – | 1074.6 ± 6.1 | – | – | –
14000 kPa | 1233.9 ± 6.2 | 1198.3 ± 6.2 | 1166.4 ± 6.2 | 1137.6 ± 6.2 | 1106.2 ± 6.2 | – | 1043.2 ± 6.1 | 1014.4 ± 6.1 | 981.5 ± 6.2
14500 kPa | 1234.3 ± 6.2 | 1198.8 ± 6.2 | 1166.8 ± 6.2 | 1137.9 ± 6.2 | 1106.6 ± 6.2 | 1074.9 ± 6.1 | 1043.5 ± 6.1 | 1014.7 ± 6.1 | 981.8 ± 6.2
14900 kPa | – | – | – | 1138.2 ± 6.2 | – | – | 1043.8 ± 6.1 | – | –
15000 kPa | 1234.7 ± 6.2 | 1199.1 ± 6.2 | 1167.2 ± 6.2 | – | 1107 ± 6.2 | 1075.2 ± 6.1 | – | 1015 ± 6.1 | 982.1 ± 6.2
15400 kPa | – | – | – | – | – | – | – | – | 982.3 ± 6.2
15500 kPa | 1235.2 ± 6.2 | 1199.6 ± 6.2 | 1167.6 ± 6.2 | 1138.7 ± 6.2 | 1107.3 ± 6.2 | 1075.6 ± 6.1 | 1044.2 ± 6.1 | 1015.3 ± 6.1 | –
15900 kPa | – | 1199.9 ± 6.2 | – | – | – | – | – | – | –
16000 kPa | 1235.6 ± 2.7 | – | 1168 ± 6.2 | 1139 ± 6.2 | 1107.7 ± 6.2 | 1075.9 ± 6.1 | 1044.5 ± 6.1 | 1015.7 ± 6.2 | 982.6 ± 6.2
16400 kPa | – | 1200.3 ± 6.2 | – | – | – | – | – | 1015.9 ± 6.1 | –
16500 kPa | 1236 ± 2.7 | – | 1168.4 ± 6.2 | 1139.4 ± 6.2 | 1108 ± 6.2 | 1076.2 ± 6.1 | 1044.8 ± 6.1 | – | 983 ± 2
16900 kPa | – | – | – | 1139.7 ± 6.2 | – | – | – | – | –
17000 kPa | 1236.4 ± 6.2 | 1200.7 ± 6.2 | 1168.7 ± 6.2 | – | 1108.4 ± 6.2 | 1076.6 ± 6.2 | 1045.1 ± 6.1 | 1016.3 ± 6.2 | 983.2 ± 6.2
17500 kPa | 1236.8 ± 6.2 | 1201.1 ± 6.2 | 1169.1 ± 6.2 | 1140.1 ± 6.2 | 1108.7 ± 6.2 | 1076.9 ± 6.2 | 1045.4 ± 6.1 | 1016.6 ± 6.2 | 983.5 ± 6.2
17900 kPa | – | – | – | – | – | – | – | 1016.9 ± 6.2 | –
18000 kPa | 1237.2 ± 6.2 | 1201.5 ± 6.2 | 1169.5 ± 6.2 | 1140.5 ± 6.2 | 1109 ± 6.2 | 1077.3 ± 6.2 | 1045.7 ± 6.1 | – | 983.8 ± 2
18400 kPa | – | – | – | – | – | 1077.6 ± 6.2 | – | – | –
18500 kPa | 1237.7 ± 6.2 | 1201.9 ± 6.2 | 1169.9 ± 6.2 | 1140.8 ± 6.2 | 1109.4 ± 6.2 | – | 1046.1 ± 6.1 | 1017.2 ± 6.2 | 984.1 ± 6.2
19000 kPa | 1238.2 ± 6.2 | 1202.4 ± 6.2 | 1170.2 ± 6.2 | 1141.2 ± 6.2 | 1109.9 ± 6.2 | 1078 ± 6.2 | 1046.4 ± 6.1 | 1017.5 ± 6.2 | 984.4 ± 6.2
19500 kPa | 1238.6 ± 6.3 | 1202.7 ± 6.2 | 1170.6 ± 6.2 | 1141.6 ± 6.2 | 1110.2 ± 6.2 | 1078.3 ± 6.2 | 1046.7 ± 6.1 | 1017.8 ± 6.2 | 984.7 ± 6.2
20000 kPa | 1239 ± 6.3 | 1203.1 ± 6.2 | 1171.1 ± 6.2 | 1142.1 ± 6.2 | 1110.6 ± 6.2 | 1078.6 ± 6.2 | 1047.08 ± 6.1 | 1018.2 ± 6.2 | 985.1 ± 6.2
